From ChEMBL document CHEMBL1129952, “Structure-based design of substituted diphenyl sulfones and sulfoxides as lipophilic inhibitors of thymidylate synthase” (J Med Chem, 1997)
Several values for one entry are separate records, joined by “and”; a condition that tells them apart may be missing. Identical values can stand only once.

Legend:
[1] = system: L1210; assay: Inhibitory activity against murine L1210 leukemic cell lines.; conditions: Mus musculus
[2] = target: T1, Thymidylate synthase (Homo sapiens, UniProt P04818)
T1 sequence (P04818 whole entry): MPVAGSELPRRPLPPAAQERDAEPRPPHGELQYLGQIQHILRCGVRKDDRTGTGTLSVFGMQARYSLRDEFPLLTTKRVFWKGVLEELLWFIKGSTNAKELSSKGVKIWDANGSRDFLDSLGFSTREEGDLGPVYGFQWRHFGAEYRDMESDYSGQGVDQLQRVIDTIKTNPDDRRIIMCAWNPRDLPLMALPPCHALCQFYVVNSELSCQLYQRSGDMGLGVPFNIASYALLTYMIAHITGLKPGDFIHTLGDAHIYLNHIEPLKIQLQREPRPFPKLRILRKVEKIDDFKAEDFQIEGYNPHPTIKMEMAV
Description: Binding affinity against recombinant thymidylate synthase in Escherichia coli

[3] = target: T1, Thymidylate synthase; remark: listed apart in the source
Description: Binding affinity against recombinant human thymidylate synthase

[4] = system: GC3/MTK-; assay: Inhibitory activity against GC3/M TK- human adreno carcinoma cell lines.
[5] = system: CCRF-CEM; assay: Inhibitory activity against human CCRF-CEM leukemic cell lines.

For `C#CCN(Cc1ccc2nc(C)nc(O)c2c1)c1ccc(S(=O)(=O)c2ccccc2C)cc1`, the IC50 [1] was 600 nM, the Ki [2] was 56 nM and 160 nM and the Ki [3] was 26 nM and 58 nM. The IC50 [4] was 3400 nM and the IC50 [5] was 2700 nM.
With `C#CCN(Cc1ccc2nc(C)nc(O)c2c1)c1ccc(S(=O)(=O)c2ccccc2Cl)cc1` the IC50 [1] was 300 nM, the Ki [2] was 33 nM and 69 nM and the Ki [3] was 21 nM and 25 nM. For the same compound, the IC50 [4] was 1200 nM and the IC50 [5] was 600 nM.
For `C#CCN(Cc1ccc2nc(C)nc(O)c2c1)c1ccc([S+]([O-])c2ccccc2C)c(C(F)(F)F)c1` (stereo not drawn), the IC50 [1] was 1000 nM, the Ki [2] was 290 nM and 920 nM and the Ki [3] was 260 nM and 390 nM. For the same compound, the IC50 [4] was 9100 nM and the IC50 [5] was 3000 nM.
For `C#CCN(Cc1ccc2nc(C)[nH]c(=O)c2c1)c1ccc([S+]([O-])c2ccccc2)cc1` (stereo not drawn), the Ki [2] was 160 nM and 550 nM and the Ki [3] was 61 nM and 110 nM.
For `C#CCN(Cc1ccc2nc(C)nc(O)c2c1)c1ccc([S+]([O-])c2ccccc2)c(F)c1` (stereo not drawn), the IC50 [1] was 2100 nM, the Ki [2] was 88 nM and 290 nM and the Ki [3] was 50 nM and 120 nM. The IC50 [4] was 4200 nM and the IC50 [5] was 1400 nM.
In the case of `C#CCN(Cc1ccc2nc(C)nc(O)c2c1)c1ccc(S(=O)(=O)c2ccccc2)c(Cl)c1`, the IC50 [1] is reported as 1600 nM, the Ki [2] is reported as 33 nM and 43 nM and the Ki [3] is reported as 24 nM and 55 nM. It also gave an IC50 [4] of 3000 nM and an IC50 [5] of 1500 nM.
With `C#CCN(Cc1ccc2nc(C)nc(O)c2c1)c1ccc([S+]([O-])c2ccccc2)c(Cl)c1` (stereo not drawn) the IC50 [1] was 1000 nM, the Ki [2] was 54 nM and 130 nM and the Ki [3] was 27 nM and 37 nM. It also gave an IC50 [4] of 3800 nM and an IC50 [5] of 2300 nM.
`C#CCN(Cc1ccc2nc(C)nc(O)c2c1)c1ccc([S+]([O-])c2ccccc2Cl)cc1` (stereo not drawn) was tested, and the IC50 [1] was 2100 nM, the Ki [2] was 190 nM and 760 nM and the Ki [3] was 46 nM and 73 nM. It also gave an IC50 [4] of 4300 nM and an IC50 [5] of 5800 nM.
`C#CCN(Cc1ccc2nc(C)nc(O)c2c1)c1ccc([S+]([O-])c2ccccc2C)cc1` (stereo not drawn) was tested, and the IC50 [1] was 1700 nM, the Ki [2] was 250 nM and 780 nM and the Ki [3] was 45 nM and 77 nM. For the same compound, the IC50 [4] was 4000 nM and the IC50 [5] was 3500 nM.
In the case of `C#CCN(Cc1ccc2nc(C)nc(O)c2c1)c1ccc(S(=O)(=O)c2ccccc2)c(F)c1`, the IC50 [1] is reported as 1200 nM, the Ki [2] is reported as 43 nM and 74 nM and the Ki [3] is reported as 20 nM and 46 nM. It also gave an IC50 [4] of 2800 nM and an IC50 [5] of 2000 nM.
Work on `C#CCN(Cc1ccc2nc(C)nc(O)c2c1)c1ccc(S(=O)(=O)c2ccccc2)cc1` yielded an IC50 [4] of 1030 nM.
For `C#CCN(Cc1ccc2nc(C)nc(O)c2c1)c1ccc([S+]([O-])c2ccccc2)c(C(F)(F)F)c1` (stereo not drawn), the IC50 [1] was 1100 nM, the Ki [2] was 110 nM and 160 nM and the Ki [3] was 70 nM and 150 nM. It also gave an IC50 [4] of 3300 nM and an IC50 [5] of 3000 nM.
With `C#CCN(Cc1ccc2nc(C)nc(O)c2c1)c1ccc(S(=O)(=O)c2ccccc2C)c(C(F)(F)F)c1` the IC50 [1] was 1000 nM, the Ki [2] was 160 nM and 390 nM and the Ki [3] was 150 nM and 380 nM. The IC50 [4] was over 5000 nM and the IC50 [5] was 2000 nM.
